Our source for the inhibition values is paper PMC10940605, “Design, synthesis and in vitro anticancer activity of some new lomefloxacin derivatives” (Scientific Reports, 2024).

Usually inhibition stands for the change of the read-out against control, counted positive when it falls.

Holding throughout (test): NCI-60 SRB screen
Assay type in all cases: cell-based

For assay [1], the system named is EKVX. As to conditions: Homo sapiens, 10^–5 Molar, read-out: Percent growth inhibition. The procedure:
(§1) All newly synthesized compounds were selected and screened for anticancer activity against 60 human cancer cell lines representing 9 types of tumors including leukemia, melanoma, lung, colon, CNS, ovarian, renal, prostate, and breast cancers at the National Cancer Institute (NCI), Bethesda, USA. Screening was performed utilizing a single dose (10^−5 M concentration) and cells were incubated for 48 h. The end point was determined using sulforhodamine B (SRB) dye.
(§2) In this study, all the 16 newly synthesized compounds were submitted to the National Cancer Institute (USA) for anticancer evaluation and were selected and evaluated using 60 different human tumor cell lines representing lung, colon, CNS, ovarian, renal, prostate, breast cancers as well as leukemia and melanoma. A single dose (10^–5 Molar) was used for the initial screening for evaluation of anticancer activity. The 60 human cancer cell lines were provided by the national cancer institute biomedical research campus in Frederick, Maryland.
(§3) 60 different human cancer cell lines were utilized to screen the newly synthesized compounds for anticancer activity according to the previously reported standard procedure[24]–[26] as follows: • 96 well microtiter plates were used to inoculate the cells at […] ranging from 4000–5000 cells/well depending on the replication time of individual cell lines. Roswell Park Memorial Institute culture medium (RPMI 1640 medium) containing 2 mM L-glutamine and fetal bovine serum was used to grow the cells at 37 °C, 5% CO2, 95% air and 100% relative humidity for 24 h. • Fixation of cells in two plates of each cell line in situ was done using trichloroacetic acid (TCA). This represented the measurement of cell population at the time of drug addition (Tz). • Dimethyl sulfoxide (DMSO) was used to dissolve the synthesized compounds at 400-fold the desired final maximum concentration and frozen prior to use. This frozen concentrate was melted and diluted to twice the final concentration with complete medium containing 50 µg/mL gentamycin at time of drug addition. • The final compound concentration was obtained by adding 100 µL of the synthesized compounds to the appropriate microtiter wells already containing 100 µL followed by incubation of the plates at 37 °C, 5% CO2, 95% air and 100% relative humidity for 48 h. • Fixation of the cells was achieved by gentle addition of 50 µL of cold 50% (w/v) TCA followed by incubation for 60 min at 4 °C. The supernatant was then discarded and the plates are washed 5 times with tap water and air dried. • Sulphorhodamine B (SRB) solution (100 µL) at 0.4% (w/v) in 1% acetic acid was added to each plate followed by incubation for 10 min at room temperature. The unbound dye was then removed by washing five times with 1% acetic acid and plates were air dried. • Dissolution of the bound stain was done using […] trizma base and the absorbance was read at […] wavelength using an automated plate reader. • The percentage growth inhibition was calculated as follows: Ti-Tz/C-Tz×100forconcentrationswhichTi≥Tz Ti-Tz/Tz×100forconcentrationswhichTi<Tz • Time zero (Tz) • Control growth (C) • Test growth in the presence of drug (Ti)

Assay [2] has as its system NCI-H522. Conditions: Homo sapiens; NCI-H522, 10^–5 Molar; read-out: Percent growth inhibition. As for the experimental part:
as §1, §2, §3

Assay [3] deals with NCI-H460. As to conditions: Homo sapiens; NCI-H460, 10^–5 Molar; read-out: Percent growth inhibition. The procedure: as §1, §2, §3
In assay [4] the test system is A498. As to conditions: Homo sapiens; A498, 10^–5 Molar; read-out: Percent growth inhibition. As for the experimental part: as §1, §2, §3
The subject of assay [5] is BT-549. As to conditions: Homo sapiens; BT-549, 10^–5 Molar; read-out: Percent growth inhibition. As for the experimental part: as §1, §2, §3
Assay [6] relates to SF-295. As to conditions: Homo sapiens; SF-295, 10^–5 Molar; read-out: Percent growth inhibition. The procedure:
as §1, §2, §3

Assay [7] relates to MDA-MB-468. Conditions: Homo sapiens; MDA-MB-468, 10^–5 Molar; read-out: Percent growth inhibition. As for the experimental part:
as §1, §2, §3

For assay [8], the system named is IGROV1. As to conditions: Homo sapiens, IGROV-1; IGROV1, 10^–5 Molar; read-out: Percent growth inhibition. As for the experimental part:
as §1, §2, §3

In assay [9] the test system is MDA-MB-435. Conditions: Homo sapiens; MDA-MB-435, 10^–5 Molar; read-out: Percent growth inhibition. As for the experimental part:
as §1, §2, §3

The test system of assay [10] is NCI-H322M. Conditions: Homo sapiens, 10^–5 Molar, read-out: Percent growth inhibition. As for the experimental part:
as §1, §2, §3

The test system of assay [11] is SNB-75. As to conditions: Homo sapiens; SNB-75, 10^–5 Molar; read-out: Percent growth inhibition. The procedure:
as §1, §2, §3

For assay [12], the system named is T-47D. Conditions: Homo sapiens, T47D, 10^–5 Molar, read-out: Percent growth inhibition. As for the experimental part: as §1, §2, §3
Assay [13] relates to SF-268. As to conditions: Homo sapiens; SF-268, 10^–5 Molar; read-out: Percent growth inhibition. As for the experimental part: as §1, §2, §3
Assay [14] has as its system NCI-H226. As to conditions: Homo sapiens; NCI-H226, 10^–5 Molar; read-out: Percent growth inhibition. The procedure: as §1, §2, §3
Assay [15] has as its system HOP-92. Conditions: Homo sapiens; HOP-92, 10^–5 Molar; read-out: Percent growth inhibition. As for the experimental part:
as §1, §2, §3

The subject of assay [16] is 786-0. Conditions: Homo sapiens; 786-0, 10^–5 Molar; read-out: Percent growth inhibition. As for the experimental part:
as §1, §2, §3

Assay [17] deals with SF-539. As to conditions: Homo sapiens; SF-539, 10^–5 Molar; read-out: Percent growth inhibition. As for the experimental part:
as §1, §2, §3

Assay [18] concerns KM12. Conditions: Homo sapiens; KM12, 10^–5 Molar; read-out: Percent growth inhibition. As for the experimental part: as §1, §2, §3
For assay [19], the system named is HOP-62. Conditions: Homo sapiens; HOP-62, 10^–5 Molar; read-out: Percent growth inhibition. As for the experimental part: as §1, §2, §3
Assay [20] concerns SN12C. As to conditions: Homo sapiens, 10^–5 Molar, read-out: Percent growth inhibition. As for the experimental part: as §1, §2, §3
Assay [21] deals with leukemia SR. As to conditions: Homo sapiens; SR, 10^–5 Molar; read-out: Percent growth inhibition. The procedure:
as §1, §2, §3

Assay [22] deals with HCT-15. Conditions: Homo sapiens; HCT-15, 10^–5 Molar; read-out: Percent growth inhibition. As for the experimental part:
as §1, §2, §3

Assay [23] concerns SW-620. Conditions: Homo sapiens; SW-620, 10^–5 Molar; read-out: Percent growth inhibition. As for the experimental part:
as §1, §2, §3

As for `CCn1cc(C(=O)O)c(=O)c2cc(F)c(N3CCN(C(=O)c4ccccc4)C(C)C3)c(F)c21` (centres unmarked) [Compound 7a, 7-(4-Benzoyl-3-methylpiperazin-1-yl)-1-ethyl-6,8-difluoro-4-oxo-1,4-dihydroquinoline-3-carboxylic acid], the inhibition at 10 µM in assay [1] was determined as 1.21%; in [2], 9.08%; in [3], 4.91%; in [4] it was 19.1%; in assay [5], 3.33%; in assay [6], 6.9%. Besides, the inhibition at 10 µM in assay [7] worked out at 4.54%; in assay [8], 3.14%; in [9] it was 4.07%; in assay [10], 14.4%; in assay [11], 21.7%; in assay [12], 18.1%. Moreover, the inhibition at 10 µM in assay [13] was 9.47%; in assay [14], 2.44%; in assay [15], 31.8%; in assay [16] it was 14.7%; in assay [17] it was 10.7%; in [18] it was 1.89%. The inhibition at 10 µM in assay [19] worked out at 4.44%.

On to `CCn1cc(C(=O)O)c(=O)c2cc(F)c(N3CCN(C(=O)c4ccc(Cl)cc4)C(C)C3)c(F)c21` (centres unmarked) [Compound 7c, 7-(4-(4-Chlorobenzoyl)-3-methylpiperazin-1-yl)-1-ethyl-6,8-difluoro-4-oxo-1,4-dihydroquinoline-3-carboxylic acid], for which the inhibition at 10 µM in assay [20] came to 3.15%; in [21], 8.55%; in [2] it was 9.51%; in assay [3], 1.66%; in assay [4], 19.2%; in [6], 3.13%. In addition, the inhibition at 10 µM in [7] is 3.92%; in assay [8], 1.62%; in assay [9], 6.54%; in assay [10] it was 7.81%; in [11], 9.12%; in assay [12], 5.3%. In addition, the inhibition at 10 µM in assay [13] turned out to be 7.02%; in [14] it was 7.33%; in assay [17], 5.06%; in [18], 0.72%; in assay [19], 2.13%.

Consider `CCn1cc(C(=O)O)c(=O)c2cc(F)c(N3CCN(CC(=O)Nc4ccccc4)C(C)C3)c(F)c21` (centres unmarked) [Compound 5a, 1-Ethyl-6,8-difluoro-7-(3-methyl-4-(2-oxo-2-(phenylamino)ethyl)piperazin-1-yl)-4-oxo-1,4-dihydroquinoline-3-carboxylic acid], for which the inhibition at 10 µM in assay [2] was found to be 7.5%; in [3], 0.79%; in [4] it was 26.6%; in assay [6], 4.71%; in [7] it was 7.38%; in [9] it was 2.9%. In addition, the inhibition at 10 µM in [10] was found to be 14.3%; in assay [11], 13.9%; in [12] it was 4.6%; in [13], 6.33%; in [15], 2.95%; in assay [16] it was 7.47%. Also, the inhibition at 10 µM was 0.89% in assay [17] and 0.07% in assay [18].

For `CCn1cc(C(=O)O)c(=O)c2cc(F)c(N3CCN(C(=O)c4ccc([N+](=O)[O-])cc4)C(C)C3)c(F)c21` (centres unmarked) [Compound 7d, 1-Ethyl-6,8-difluoro-7-(3-methyl-4-(4-nitrobenzoyl)piperazin-1-yl)-4-oxo-1,4-dihydroquinoline-3-carboxylic acid], the inhibition at 10 µM in [20] amounted to 0.88%; in assay [21], 44.8%; in assay [2] it was 0.62%; in assay [4], 8.25%; in [6] it was 2.82%; in assay [7], 2.79%. In addition, the inhibition at 10 µM in assay [10] came to 12.7%; in assay [11], 13.9%; in assay [12], 4.73%; in [13], 7.01%; in assay [14], 3.95%; in [15] it was 0.34%. For the same molecule, the inhibition at 10 µM in assay [16] turned out to be 0.6%; in assay [17], 8.54%; in assay [18] it was 1.24%; in assay [19], 7.44%.

`CCn1cc(C(=O)O)c(=O)c2cc(F)c(N3CCN(C(=O)c4ccc(Br)cc4)C(C)C3)c(F)c21` (centres unmarked) [Compound 7b, 7-(4-(4-Bromobenzoyl)-3-methylpiperazin-1-yl)-1-ethyl-6,8-difluoro-4-oxo-1,4-dihydroquinoline-3-carboxylic acid]: the inhibition at 10 µM in assay [20] is 1.45%; in assay [21] it was 1.41%; in assay [2], 10%; in [22], 1.3%; in [3] it was 1.2%; in assay [4], 13.8%. Also, the inhibition at 10 µM was 6.71% in [6]; 3.31% in assay [7]; 5.97% in assay [8]; 3.15% in assay [9]; 5.64% in assay [10]; 2.37% in assay [11]. The inhibition at 10 µM came out at 6.95% in assay [12]; 6.79% in assay [13]; 1.95% in assay [14]; 0% in assay [23]; 0.58% in [16]; 9.67% in [17]. Besides, the inhibition at 10 µM in [18] is 3.51%; in assay [19] it was 5.56%.
